≈ marks a conversion by molar mass, not a printed value. Like-named read-outs stand apart in the source and are kept apart here.
Columns and labels:
Assay type in all cases: cell-based
Botrtyis cinerea (Bc) = assay: In vitro pathogen growth inhibition assay, Bc; details: 48 h
Procedure, shortened: (§1)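 Value reported is the compound concentration reaching ≥90% growth inhibition, from OD readings at 24 and 48 h after blank subtraction, confirmed visually. Inoculum was spores diluted in 17% V8 medium, except Rs, using 1.5 mm mycelial plugs in ¼ PDB; actual compound concentration corrected via OD600.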

[1] = tested on: Collectotrichum graminicola (Cg); assay: In vitro pathogen growth inhibition assay, Cg; details: 48 h
Procedure, shortened: as §1

Diplodia maydis (Dm) = assay: In vitro pathogen growth inhibition assay, Dm; details: Stenocarpella maydis, 48 h
Procedure, shortened: as §1

[2] = tested on: Fusarium moniliforme (Fm); assay: In vitro pathogen growth inhibition assay, Fm; details: Fusarium verticillioides
Procedure, shortened: as §1

[3] = tested on: Fusarium virguliforme (Fv); assay: In vitro pathogen growth inhibition assay, Fv
Procedure, shortened: as §1

[4] = tested on: Phytophthora capsici (Pc); assay: In vitro pathogen growth inhibition assay, Pc; details: 48 h
Procedure, shortened: as §1

Rhizoctonia solani (Rs) = assay: In vitro pathogen growth inhibition assay, Rs (mycelial plugs); details: Rhizoctonia solani, 48 h
Procedure, shortened: as §1

Septoria tritici (St) = assay: In vitro pathogen growth inhibition assay, St; details: Zymoseptoria tritici, 48 h
Procedure, shortened: as §1

[5] = ≥90% growth inhibition, 48 hours, vs 2% DMSO control, read-out: Compound Concentration (ppm) sufficient for ≥90% inhibition of Bc
[6] = ≥90% growth inhibition, 48 hours, vs 2% DMSO control, read-out: Compound Concentration (ppm) sufficient for ≥90% inhibition of Cg
[7] = ≥90% growth inhibition, 48 hours, vs 2% DMSO control, read-out: Compound Concentration (ppm) sufficient for ≥90% inhibition of Dm
[8] = ≥90% growth inhibition, 48 hours, vs 2% DMSO control, read-out: Compound Concentration (ppm) sufficient for ≥90% inhibition of Fm
[9] = ≥90% growth inhibition, 48 hours, vs 2% DMSO control, read-out: Compound Concentration (ppm) sufficient for ≥90% inhibition of Fv
[10] = ≥90% growth inhibition, 48 hours, vs 2% DMSO control, read-out: Compound Concentration (ppm) sufficient for ≥90% inhibition of Pc
[11] = ≥90% growth inhibition, mycelial plugs, 48 hours, vs 2% DMSO control, read-out: Compound Concentration (ppm) sufficient for ≥90% inhibition of Rs
[12] = ≥90% growth inhibition, 48 hours, vs 2% DMSO control, read-out: Compound Concentration (ppm) sufficient for ≥90% inhibition of St

Row | SMILES | IC90 (Botrtyis cinerea (Bc); concentration sufficient to ≥90% inhibition of growth, 48 hours vs 2% DMSO control, read-out: Compound Concentration (ppm) for ≥90% inhibition, Bc) | IC90 ([1]; concentration sufficient to ≥90% inhibition of growth, 48 hours vs 2% DMSO control, read-out: Compound Concentration (ppm) for ≥90% inhibition, Cg) | IC90 (Diplodia maydis (Dm); concentration sufficient to ≥90% inhibition of growth, 48 hours vs 2% DMSO control, read-out: Compound Concentration (ppm) for ≥90% inhibition, Dm) | IC90 ([2]; concentration sufficient to ≥90% inhibition of growth, 48 hours vs 2% DMSO control, read-out: Compound Concentration (ppm) for ≥90% inhibition, Fm) | IC90 ([3]; concentration sufficient to ≥90% inhibition of growth, 48 hours vs 2% DMSO control, read-out: Compound Concentration (ppm) for ≥90% inhibition, Fv) | IC90 ([4]; concentration sufficient to ≥90% inhibition of growth, 48 hours vs 2% DMSO control, read-out: Compound Concentration (ppm) for ≥90% inhibition, Pc) | IC90 (Rhizoctonia solani (Rs); concentration sufficient to ≥90% inhibition of growth, 48 hours vs 2% DMSO control, read-out: Compound Concentration (ppm) for ≥90% inhibition, Rs) | IC90 (Septoria tritici (St); concentration sufficient to ≥90% inhibition of growth, 48 hours vs 2% DMSO control, read-out: Compound Concentration (ppm) for ≥90% inhibition, St) | IC90 (Botrtyis cinerea (Bc); [5]) | IC90 [1, 6] | IC90 (Diplodia maydis (Dm); [7]) | IC90 [2, 8] | IC90 [3, 9] | IC90 [4, 10] | IC90 (Rhizoctonia solani (Rs); [11]) | IC90 (Septoria tritici (St); [12])
1 | COc1ccc(F)cc1[C@H](Cn1c(=O)n([C@@H](C)C(N)=O)c(=O)c2c(C)c(-n3nccn3)sc21)OCC(C)(C)C#N [Compound I-256] | 50 µg/mL (≈ 87.8 µM) | 50 µg/mL (≈ 87.8 µM) | 50 µg/mL (≈ 87.8 µM) | 10 µg/mL (≈ 17.6 µM) | 50 µg/mL (≈ 87.8 µM) | > 50 µg/mL | 50 µg/mL (≈ 87.8 µM) | > 50 µg/mL |  |  |  |  |  |  |  | 
2 | COc1ccc(F)cc1[C@H](Cn1c(=O)n(C(C)(C)C(=O)NC(C)C)c(=O)c2c(C)c(-n3cccn3)sc21)OCC#N [Compound I-257] |  |  |  |  |  |  |  |  | 2 µg/mL (≈ 3.43 µM) | 2 µg/mL (≈ 3.43 µM) | 50 µg/mL (≈ 85.8 µM) | 0.4 µg/mL (≈ 0.687 µM) | 0.4 µg/mL (≈ 0.687 µM) | > 50 µg/mL | 2 µg/mL (≈ 3.43 µM) | > 50 µg/mL
3 | Cc1c(-n2nccn2)sc2c1c(=O)n(C(C)(C)C(=O)NC1CCC1)c(=O)n2C[C@H](OC(C)C)c1cc(F)ccc1OCC#N [Compound I-267] |  |  |  |  |  |  |  |  | 0.4 µg/mL (≈ 0.641 µM) | 2 µg/mL (≈ 3.21 µM) | 2 µg/mL (≈ 3.21 µM) | 0.08 µg/mL (≈ 0.128 µM) | 0.4 µg/mL (≈ 0.641 µM) | > 50 µg/mL | 0.4 µg/mL (≈ 0.641 µM) | > 50 µg/mL
4 | Cc1c(-n2nccn2)sc2c1c(=O)n(C(C)(C)C(=O)NC(C)C)c(=O)n2C[C@H](OCC(C)(C)C#N)c1cc(C#N)ccc1OCC#N [Compound I-269] |  |  |  |  |  |  |  |  | 10 µg/mL (≈ 15.2 µM) | > 50 µg/mL | > 50 µg/mL | 0.4 µg/mL (≈ 0.608 µM) | 10 µg/mL (≈ 15.2 µM) | > 50 µg/mL | 2 µg/mL (≈ 3.04 µM) | > 50 µg/mL
5 | Cc1c(-n2nccn2)sc2c1c(=O)n(C(C)(C)C(=O)NC(C)C)c(=O)n2C[C@H](OCCO)c1cc(F)ccc1O [Compound I-271] |  |  |  |  |  |  |  |  | 10 µg/mL (≈ 17.4 µM) | ≥ 10 µg/mL | 50 µg/mL (≈ 87 µM) | 2 µg/mL (≈ 3.48 µM) | 10 µg/mL (≈ 17.4 µM) | 50 µg/mL (≈ 87 µM) | 2 µg/mL (≈ 3.48 µM) | > 50 µg/mL

Further lines, results first:

Row | IC90 (Botrtyis cinerea (Bc); concentration sufficient to ≥90% inhibition of growth, 48 hours vs 2% DMSO control, read-out: Compound Concentration (ppm) for ≥90% inhibition, Bc) | IC90 ([1]; concentration sufficient to ≥90% inhibition of growth, 48 hours vs 2% DMSO control, read-out: Compound Concentration (ppm) for ≥90% inhibition, Cg) | IC90 (Diplodia maydis (Dm); concentration sufficient to ≥90% inhibition of growth, 48 hours vs 2% DMSO control, read-out: Compound Concentration (ppm) for ≥90% inhibition, Dm) | IC90 ([2]; concentration sufficient to ≥90% inhibition of growth, 48 hours vs 2% DMSO control, read-out: Compound Concentration (ppm) for ≥90% inhibition, Fm) | IC90 ([3]; concentration sufficient to ≥90% inhibition of growth, 48 hours vs 2% DMSO control, read-out: Compound Concentration (ppm) for ≥90% inhibition, Fv) | IC90 ([4]; concentration sufficient to ≥90% inhibition of growth, 48 hours vs 2% DMSO control, read-out: Compound Concentration (ppm) for ≥90% inhibition, Pc) | IC90 (Rhizoctonia solani (Rs); concentration sufficient to ≥90% inhibition of growth, 48 hours vs 2% DMSO control, read-out: Compound Concentration (ppm) for ≥90% inhibition, Rs) | IC90 (Septoria tritici (St); concentration sufficient to ≥90% inhibition of growth, 48 hours vs 2% DMSO control, read-out: Compound Concentration (ppm) for ≥90% inhibition, St) | IC90 (Botrtyis cinerea (Bc); [5]) | IC90 [1, 6] | IC90 (Diplodia maydis (Dm); [7]) | IC90 [2, 8] | IC90 [3, 9] | IC90 [4, 10] | IC90 (Rhizoctonia solani (Rs); [11]) | IC90 (Septoria tritici (St); [12]) | SMILES
6 |  |  |  |  |  |  |  |  | 0.4 µg/mL (≈ 0.622 µM) | 2 µg/mL (≈ 3.11 µM) | 2 µg/mL (≈ 3.11 µM) | 0.08 µg/mL (≈ 0.124 µM) | 0.4 µg/mL (≈ 0.622 µM) | 50 µg/mL (≈ 77.8 µM) | 0.08 µg/mL (≈ 0.124 µM) | > 50 µg/mL | COc1ccc(F)cc1[C@H](Cn1c(=O)n(C(C)(C)C(=O)NC(C)C)c(=O)c2c(C)c(-n3nccn3)sc21)O[C@H]1CC[C@@H](O)CC1 [Compound I-264]
7 |  |  |  |  |  |  |  |  | 0.4 µg/mL (≈ 0.64 µM) | 2 µg/mL (≈ 3.2 µM) | 2 µg/mL (≈ 3.2 µM) | 0.08 µg/mL (≈ 0.128 µM) | 0.4 µg/mL (≈ 0.64 µM) | ≥ 50 µg/mL | 0.08 µg/mL (≈ 0.128 µM) | ≥ 50 µg/mL | COc1ccccc1[C@H](Cn1c(=O)n(C(C)(C)C(=O)NC(C)C)c(=O)c2c(C)c(-n3nccn3)sc21)O[C@H]1CC[C@@H](O)CC1 [Compound I-265]
8 |  |  |  |  |  |  |  |  | 2 µg/mL (≈ 3.26 µM) | 10 µg/mL (≈ 16.3 µM) | 10 µg/mL (≈ 16.3 µM) | 2 µg/mL (≈ 3.26 µM) | 2 µg/mL (≈ 3.26 µM) | ≥ 50 µg/mL | 2 µg/mL (≈ 3.26 µM) | > 50 µg/mL | COc1ccccc1[C@H](Cn1c(=O)n(C(C)(C)C(=O)NC(C)C)c(=O)c2c(C)c(-n3nccn3)sc21)OCCC(=O)NO [Compound I-266]
9 |  |  |  |  |  |  |  |  | 2 µg/mL (≈ 3 µM) | 2 µg/mL (≈ 3 µM) | ≥ 2 µg/mL | 0.08 µg/mL (≈ 0.12 µM) | 2 µg/mL (≈ 3 µM) | > 50 µg/mL | 0.4 µg/mL (≈ 0.599 µM) | > 50 µg/mL | Cc1c(-n2nccn2)sc2c1c(=O)n(C(C)(C)C(=O)NC(C)C)c(=O)n2C[C@H](O[C@H]1CC[C@@H](O)CC1)c1cc(F)ccc1OCC#N [Compound I-268]
10 |  |  |  |  |  |  |  |  | 0.4 µg/mL (≈ 0.583 µM) | 2 µg/mL (≈ 2.91 µM) | 2 µg/mL (≈ 2.91 µM) | 0.08 µg/mL (≈ 0.117 µM) | 0.4 µg/mL (≈ 0.583 µM) | > 50 µg/mL | > 50 µg/mL | > 50 µg/mL | COc1ccc(Br)cc1[C@H](Cn1c(=O)n(C(C)(C)C(=O)NC(C)C)c(=O)c2c(C)c(-n3nccn3)sc21)OCC(C)(C)C#N [Compound I-270]
11 |  |  |  |  |  |  |  |  | 2 µg/mL (≈ 3.11 µM) | 2 µg/mL (≈ 3.11 µM) | 2 µg/mL (≈ 3.11 µM) | 2 µg/mL (≈ 3.11 µM) | 2 µg/mL (≈ 3.11 µM) | > 50 µg/mL | 2 µg/mL (≈ 3.11 µM) | > 50 µg/mL | COc1ccc(Cl)cc1[C@H](Cn1c(=O)n(C(C)(C)C(=O)NC(C)C)c(=O)c2c(C)c(-n3nccn3)sc21)OCC(C)(C)C#N [Compound I-272]
